Test results published in publication PMC12134304, “Exploring novel of 1,2,4-triazolo[4,3-a]quinoxaline sulfonamide regioisomers as anti-diabetic and anti-Alzheimer agents with in-silico molecular docking simulation” (Scientific Reports, 2025).

Legend:
Type in all cases: biochemical
α-glucosidase = test: in vitro enzyme inhibition assay (Pistia-Brueggeman method); details: read-out: The in vitro median inhibitory concentrations (IC50 ± SE) (μM) / Anti-diabetic activity ^a / α-glucosidase
α-amylase = test: in vitro enzyme inhibition assay (Wickramaratne method); details: read-out: The in vitro median inhibitory concentrations (IC50 ± SE) (μM) / Anti-diabetic activity ^a / α-amylase
[1] = target: acetylcholinesterase (AChE) (Homo sapiens, UniProt P22303); test: Ellman's method, single-concentration percent inhibition
Chain of acetylcholinesterase (AChE) (P22303 32-614): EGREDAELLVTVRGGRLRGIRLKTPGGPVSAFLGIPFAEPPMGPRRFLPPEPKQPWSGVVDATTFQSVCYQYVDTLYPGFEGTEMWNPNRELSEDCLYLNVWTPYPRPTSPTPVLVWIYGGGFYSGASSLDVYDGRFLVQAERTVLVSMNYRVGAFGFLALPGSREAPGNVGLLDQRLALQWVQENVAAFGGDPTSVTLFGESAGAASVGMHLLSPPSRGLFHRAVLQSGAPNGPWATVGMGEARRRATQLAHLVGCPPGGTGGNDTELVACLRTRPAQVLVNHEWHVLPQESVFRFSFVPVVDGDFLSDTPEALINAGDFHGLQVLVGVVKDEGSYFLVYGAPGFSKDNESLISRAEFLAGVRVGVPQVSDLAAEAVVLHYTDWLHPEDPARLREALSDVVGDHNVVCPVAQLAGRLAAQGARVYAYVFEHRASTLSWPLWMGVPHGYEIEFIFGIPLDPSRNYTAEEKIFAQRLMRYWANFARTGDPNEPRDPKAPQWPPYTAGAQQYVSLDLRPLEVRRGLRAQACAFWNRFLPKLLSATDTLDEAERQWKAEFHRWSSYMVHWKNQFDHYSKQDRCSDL

Q: Which results are given for `C=CCNc1nnc2c(N3CCCC3)nc3ccc(S(=O)(=O)N4CCCC4)cc3n12` [10a, N-Allyl-4-(pyrrolidin-1-yl)-8-(pyrrolidin-1-ylsulfonyl)-[1,2,4]triazolo[4,3-a]quinoxalin-1-amine]?
A: IC50 (α-glucosidase): 3.46 ± 0.06 µM; IC50 (α-amylase): 6.89 ± 0.09 µM

Q: With `Cc1nnc2c(N3CCCC3)nc3cc(S(=O)(=O)N4CCCC4)ccc3n12` [11b, 1-Methyl-4-(pyrrolidin-1-yl)-7-(pyrrolidin-1-ylsulfonyl)-[1,2,4]triazolo[4,3-a]quinoxaline] as the compound, how does the “The in vitro inhibitory percentage (IP ± SE) of the designed two isomers sulfonamide quinoxaline derivatives at 100 μM / Anti-Alzheimer activity ^a / AChE” value [1] read?
A: 44.78 ± 0.01
